Key:
iPS-ML2 [1] = assay: Evaluation test of skin sensitizing property and/or pyrogenic property: IL-6/IL-8 production by immortalized monocytes (ELISA); type: cell-based, human; conditions: iPS-ML2, 6 hr after addition, culture supernatant ELISA; negative control = medium alone; test substance up to 200 μg/mL
Source text: (§1) 1. […] 2. […] This operation was repeated once more. 3. […] 4. […] 5. […] 6. […] 7. […] 8. […] 9. […] 10.

mouse = conditions: in vivo; cited from earlier work
iPS-ML2 [2] = assay: Detection test of skin sensitizer and/or pyrogen: IL-6/IL-8 production by immortalized monocytes (ELISA); type: cell-based, human; conditions: iPS-ML2, both 6 hr and 24 hr after culturing; negative control = culture medium alone
Source text: as §1

In the case of CC(O)C(=O)O (centres unmarked) [N7, Lactic acid], the “production of IL-6 compared with the negative control” value (iPS-ML2 [1]) is reported as “did not show production” and the “production of IL-8 compared with the negative control” value (iPS-ML2 [1]) is reported as “did not show production”.

For Nc1ccc(N)cc1 [P2, 4-Phenylenediamine], the “skin sensitizing property in LLNA” value (mouse) is listed as “have skin sensitizing property”.

In the case of Staphylococcus aureus Cowan 1 [SAC], the “production amount of IL-6 in the culture supernatant with respect to the negative control” value (iPS-ML2 [2]) is reported as “increased as the dilution rate became smaller” and the “production amount of IL-8 in the culture supernatant with respect to the negative control” value (iPS-ML2 [2]) is reported as “increased as the dilution rate became smaller”.

— patent US20220412958A1, “METHOD FOR EVALUATING SAFETY OF SUBSTANCE IN VITRO USING HUMAN IMMORTALIZED MYELOID CELLS” (MiCAN Technologies Inc., priority 2019, published 2022)
